Consider 9 compounds from patent publication US4410459A, “Process for preparation of cytostatic compounds” (priority 1980, dated 1983).

Data set [1] can be described thus: Acute toxicity in mice (i.p., Lichfield and Wilcoxon), with paralytic side effect. Format: in vivo, male Swiss mice. As to conditions: for Paralytic side effect: symbols 0 / + not defined; for LD50: mouse, in vivo, ip. On the procedure: The acute toxicity of the compounds according to the invention was tested on male Swiss mice weighing 27 to 31 g. The tests were carried out on groups of six mice. Test compounds were administered intraperitoneally, as injectable solutions prepared with physiological saline solution and optionally one drop of Tween 80.

In data set [2] the test system is P 388 mouse leukaemia. Kind of data set: P 388 leukaemia test (life span of i.p. transplanted mice). Format: in vivo, BDF hybrid mice. On the procedure: (§1) The effect of the new compounds on intraperitoneally transplantable tumors (P 388 mouse leukaemia and NK/Ly ascites lymphoma) is described hereinbelow. The P 388 leukaemia test was performed on BDF hybrid mice. The tests were carried out on groups of six mice and 10^6 tumor cells/animal were transplanted intraperitoneally. Administration of the test compounds was started in the 24th hour after transplantation. Treatment was performed intraperitoneally and the body weight and state of animals was controlled every day. The effect obtained on the treated animals is expressed in % of the mean length of life of the control group, given in days.

The test system of data set [3] is HeLa culture. The data set is described as follows: Metaphase block stages in stained tissue cultures. Format: cell-based. On the procedure: The test compounds were dissolved in the tissue cultures (HeLa culture) in concentrations ranging from the threshold dose of 1×10^-3 μg./ml. up to 100 μg./ml. In 24-hour cultures, by in vivo microscopic evaluation of the metaphase-arresting affect the following results were obtained.
Under similar conditions but using stained tissue cultures slight differences could be observed which can be classified as follows:
The first stage (minimal effective dose) is characterized by an increased ratio of blocked mitoses. A part is abnormal mitoses, for example three-group mitosis or polar chromosomes also occur. Generally the anaphases have already disappeared.
In the second stage a strong metaphase blocking is observed and practically there is no regulare mitosis present. Chromosomes are in the form of a loose glomus. The proportion of interphase cells is low.
In the third stage the chromosomas are aggregated in a mass in the middle of the cell. This state is called picnomitosis of "Ball-Metaphase".
In the fourth stage already the interphase cells are influenced. More particularly, the number of the blocked cells is decreased since they are not able to take part in mitosis. The cytoplasm of the cells (in interphase) is extended, its border is irregular, "fringy", the cells frequently have an elongated, fibroplast-like shape.
Finally, in the fifth stage the cytoplasm is filled in by a fine, reticular structure and the interphase cell has unambiguously been killed by the treatment.

Data set [4] deals with NK/Ly ascites lymphoma. Kind of data set: NK/Ly ascites tumour test (survival and tumor-free animals). Format: in vivo, Swiss-H/Riop outbred mice. Particulars: 5 × 4.0 mg./kg. i.p. On the procedure: as §1
(§2) Into groups of ten Swiss-H/Riop outbred mice from our own breed 5×10^6 ascites tumour cells were transplanted intraperitoneally. In the 24th hour after transplantation treatment was started and the compounds were administered daily, altogether five times. The mean length of life of the control group amounted to 15.7 days.

For data set [5], the system named is intraperitoneally transplantable tumors (P 388 mouse leukaemia and NK/Ly ascites lymphoma). The data set is described as follows: Similar transplanted tumor tests with N-desmethyl-N-(methoxymethyl)-20'-desoxy-leurosidine (life span). Format: in vivo. Particulars: for Treated/Control: mean length of life. On the procedure: as §1, §2
Similar tests were performed with N-desmethyl-N-(methoxymethyl)-20'-desoxy-leurosidine. In these tests the doses and the number of treatments were varied.

Where [6] appears, read: Mus musculus, P388, ip, mean length of life, 8 × 1.0 mg./kg. i.p., read-out: Treated/Control.
The mark [7] stands for this setting: Mus musculus, P388, ip, mean length of life, 8 × 2.0 mg./kg. i.p., read-out: Treated/Control.
Where [8] appears, read: Mus musculus, P388, ip, mean length of life, 8 × 4.0 mg./kg. i.p., read-out: Treated/Control.
Where [9] appears, read: Mus musculus, P388, ip, mean length of life, 8 × 8.0 mg./kg. i.p., read-out: Treated/Control.
Where [10] appears, read: Mus musculus, P388, ip, mean length of life, 8 × 0.4 mg./kg. i.p., read-out: Treated/Control.

Where two headings read alike, the source gives them in different places.

Regarding `CC[C@]1(O)C[C@@H]2CN(CCc3c([nH]c4ccccc34)[C@@](C(=O)OC)(c3cc4c(cc3OC)N(C)[C@H]3[C@@](O)(C(=O)OC)[C@H](OC(C)=O)[C@]5(CC)C=CCN6CC[C@]43[C@@H]65)C2)C1` [vinblastine, reference compound], in data set [1], the Paralytic side effect is given as 0.
Regarding `CCCOCN1c2cc(OC)c(C3(C(=O)OC)CC4CN(CCc5c3[nH]c3ccccc53)CC(O)(CC)C4)cc2C23CCN4CC=CC(CC)(C(OC(C)=O)C(O)(C(=O)OC)C12)C43` (stereo not shown) [N-Desmethyl-N-(propoxymethyl)-vinblastine], the LD50 in data set [1] was approximately 80 mg/kg. In addition, the Paralytic side effect in data set [1] stood at 0. Besides, the “Mean length of life, treated” value in data set [2] (8 × 1.0 mg./kg. i.p.) was found to be 15.0 days; in data set [2] (8 × 2.0 mg./kg. i.p.), 20.8 days; in data set [2] (8 × 4.0 mg./kg. i.p.), 19.0 days; in data set [2] (8 × 8.0 mg./kg. i.p.) it was 20.2 days; in data set [2] (8 × 10.0 mg./kg. i.p.) it was 14.7 days. Besides, in data set [2] (8 × 10.0 mg./kg. i.p., footnote: The animals died tumorfree), the Toxicity entry is on record as “toxic”. Besides, in data set [2] (setting [6]), the response vs control in vivo at 1 mg/kg came out at 145%. Besides, the response vs control in vivo at 2 mg/kg in data set [2] (setting [7]) was determined as 198%. In data set [2] (setting [8]), the response vs control in vivo at 4 mg/kg came to 171%. Also, the response vs control in vivo at 8 mg/kg in data set [2] (setting [9]) was 205%. In data set [2] (Mus musculus, P388, ip, mean length of life, 8 × 10.0 mg./kg. i.p., read-out: Treated/Control), the response vs control in vivo at 10 mg/kg is 142%.
`CCC1(O)CC2CN(CCc3c([nH]c4ccccc34)C(C(=O)OC)(c3cc4c(cc3OC)N(COCc3ccccc3)C3C(O)(C(=O)OC)C(OC(C)=O)C5(CC)C=CCN6CCC43C65)C2)C1` (stereo not shown) [N-Desmethyl-N-(benzyloxymethyl)-vinblastine] registered a median lethal dose (LD50) in data set [1] of approximately 70 mg/kg. In addition, the Paralytic side effect in data set [1] is reported as 0. Also, the “Mean length of life, treated” value in data set [2] (5 × 8.0 mg./kg. i.p.) was determined as 19.2 days; in data set [2] (8 × 0.4 mg./kg. i.p.), 13.0 days; in data set [2] (8 × 4.0 mg./kg. i.p.), 18.3 days. Besides, in data set [2] (Mus musculus, P388, ip, mean length of life, 5 × 8.0 mg./kg. i.p., read-out: Treated/Control), the response vs control in vivo at 8 mg/kg worked out at 195%. In data set [2] (setting [10]), the response vs control in vivo at 0.4 mg/kg was 126%. Also, the response vs control in vivo at 4 mg/kg in data set [2] (setting [8]) stood at 178%. Further, in data set [3], the relative effectiveness result is “weakest effect”. Besides, in data set [3] (0.001 μg./ml.), the “effect on mitosis at lowest dose” value is “minimum block with several deformed mitoses but without anaphases”. Also, the “effect on mitosis at 0.01 μg./ml.” value in data set [3] (0.01 μg./ml.) was “the block was moderate”.
Consider `C=CCOCN1c2cc(OC)c(C3(C(=O)OC)CC4CN(CCc5c3[nH]c3ccccc53)CC(O)(CC)C4)cc2C23CCN4CC=CC(CC)(C(OC(C)=O)C(O)(C(=O)OC)C12)C43` (stereo not shown) [N-Desmethyl-N-(allyloxymethyl)-vinblastine], for which, in data set [1], the median lethal dose (LD50) is approximately 45 mg/kg and the Paralytic side effect came out at 0. In addition, the “Mean length of life, treated” value in data set [2] (8 × 0.4 mg./kg. i.p.) is on record as 15.0 days. For the same compound, the “Mean length of life, treated” value in data set [2] (8 × 4.0 mg./kg. i.p.) is reported as 21.0 days. The “Mean length of life, treated” value in data set [2] (8 × 8.0 mg./kg. i.p.) is reported as 20.5 days. Besides, in data set [2] (setting [10]), the response vs control in vivo at 0.4 mg/kg came to 145%. Further, the response vs control in vivo at 4 mg/kg in data set [2] (setting [8]) was determined as 200%. Besides, in data set [2] (setting [9]), the response vs control in vivo at 8 mg/kg came out at 207%. Also, in data set [4], the alive was 10/10, the “on the 25th day tumor-free” value was 10/10 and the “on the 30th day tumor-free” value is on record as 6/10.
Turning to `CCC1(O)CC2CN(CCc3c([nH]c4ccccc34)C(C(=O)OC)(c3cc4c(cc3OC)N(COC)C3C(O)(C(=O)OC)C(OC(C)=O)C5(CC)C=CCN6CCC43C65)C2)C1` (stereo not shown) [N-Desmethyl-N-(methoxymethyl)-vinblastine], in data set [1], the LD50 was approximately 100 mg/kg and the Paralytic side effect is on record as 0. The “Mean length of life, treated” value in data set [2] (8 × 1.0 mg./kg. i.p.) came to 12.7 days. The “Mean length of life, treated” value in data set [2] (8 × 6.0 mg./kg. i.p.) came out at 19.2 days. In addition, the response vs control in vivo at 1 mg/kg in data set [2] (setting [6]) came to 122%. Besides, in data set [2] (setting [8]), the response vs control in vivo at 4 mg/kg turned out to be 171%. Moreover, the response vs control in vivo at 6 mg/kg in data set [2] (Mus musculus, P388, ip, mean length of life, 8 × 6.0 mg./kg. i.p., read-out: Treated/Control) was determined as 182%.
As to `CCC1CC2CN(CCc3c([nH]c4ccccc34)C(C(=O)OC)(c3cc4c(cc3OC)N(COC)C3C(O)(C(=O)OC)C(OC(C)=O)C5(CC)C=CCN6CCC43C65)C2)C1` (stereo not shown) [N-Desmethyl-N-(methoxymethyl)-20'-desoxyleurosidine], the “Mean length of life, treated” value amounted to 17.1 days in data set [5] (4 × 7 mg./kg. i.p.); 21.8 days in data set [5] (4 × 8 mg./kg. i.p.); 15.3 days in data set [5] (8 × 0.5 mg./kg. i.p.); 21.7 days in data set [5] (8 × 1 mg./kg. i.p.); 20.8 days in data set [5] (8 × 4 mg./kg. i.p.). Also, the Treated/Control turned out to be 142% in data set [5] (4 × 7 mg./kg. i.p.); 180% in data set [5] (4 × 8 mg./kg. i.p.); 126% in data set [5] (8 × 0.5 mg./kg. i.p.); 178% in data set [5] (8 × 1 mg./kg. i.p.); 180% in data set [5] (8 × 4 mg./kg. i.p.).
As for `CCC1(O)CC2CN(CCc3c([nH]c4ccccc34)C(C(=O)OC)(c3cc4c(cc3OC)N(COC3CCCCC3)C3C(O)(C(=O)OC)C(OC(C)=O)C5(CC)C=CCN6CCC43C65)C2)C1` (stereo not shown) [N-Desmethyl-N-(cyclohexaloxymethyl)vinblastine], in data set [1], the 50% lethal dose (LD50) is approximately 60 mg/kg and the Paralytic side effect turned out to be 0. Moreover, the “Mean length of life, treated” value in data set [2] (8 × 0.4 mg./kg. i.p.) turned out to be 13.1 days. In data set [2] (8 × 4.0 mg./kg. i.p.), the “Mean length of life, treated” value came to 18.8 days. In addition, the “Mean length of life, treated” value in data set [2] (8 × 8.0 mg./kg. i.p.) is reported as 19.3 days. In addition, the response vs control in vivo at 0.4 mg/kg in data set [2] (setting [10]) was 127%. The response vs control in vivo at 4 mg/kg in data set [2] (setting [8]) amounted to 181%. Also, in data set [2] (setting [9]), the response vs control in vivo at 8 mg/kg turned out to be 197%. Further, in data set [4], the alive is 10/10, the “on the 25th day tumor-free” value is 5/10 and the “on the 30th day tumor-free” value is listed as 3/10.
In data set [1], `CCOCN1c2cc(OC)c(C3(C(=O)OC)CC4CN(CCc5c3[nH]c3ccccc53)CC(O)(CC)C4)cc2C23CCN4CC=CC(CC)(C(OC(C)=O)C(O)(C(=O)OC)C12)C43` (stereo not shown) [N-Desmethyl-N-(ethoxymethyl)-vinblastine] came in with an LD50 of approximately 110 mg/kg. In addition, the Paralytic side effect in data set [1] stood at 0. For the same compound, the “Mean length of life, treated” value in data set [2] (8 × 2.0 mg./kg. i.p.) worked out at 20.3 days; in data set [2] (8 × 4.0 mg./kg. i.p.), 18.5 days; in data set [2] (8 × 8.0 mg./kg. i.p.) it was 20.5 days. Besides, the response vs control in vivo at 2 mg/kg in data set [2] (setting [7]) worked out at 193%. Also, the response vs control in vivo at 4 mg/kg in data set [2] (setting [8]) was determined as 167%. Besides, the response vs control in vivo at 8 mg/kg in data set [2] (setting [9]) came to 208%.
In turn, `CC[C@]1(O)C[C@@H]2CN(CCc3c([nH]c4ccccc34)[C@@](C(=O)OC)(c3cc4c(cc3OC)N(C)[C@H]3[C@@](O)(C(N)=O)[C@H](O)[C@]5(CC)C=CCN6CC[C@]43[C@@H]65)C2)C1` [vindesine, reference compound] came in with an LD50 in data set [1] of 4 mg/kg.

For orientation: LD50 means the dose at which mortality reaches 50%. Higher therefore signals lower toxicity.
